We go through four compounds from PMC10508264, “Exploring the antioxidant, antimicrobial, cytotoxic and biothermodynamic properties of novel morpholine derivative bioactive Mn(II), Co(II) and Ni(II) complexes – combined experimental and theoretical measurements towards DNA/BSA/SARS-CoV-2 3CL^Pro” (RSC Medicinal Chemistry, 2023).

In assay [1] the test system is CT-DNA. The experiment in a line: DNA binding by cyclic voltammetry. To be noted: for Kb, method I, Oxi: oxidation; for Kb, method I, red: reduction. The protocol: The changes in peak current as well as peak potential were monitored while concentrations of CT-DNA were increased (0–10 μM) in each sample solution.[13,36]
The CV approach is one of the most important methods for evaluating the binding mechanism of a DNA–complex adduct. The CV properties of all test samples in the presence and absence of DNA were executed at a scan rate (v) of 0.1 V s^−1 with a potential range of +2 to −2 in a Tris–HCl (5 mM)/NaCl (50 mM) (pH = 7.2) solution. The M^1+/M^2+ redox couple is caused by complexes that reveal a single anodic and cathodic peak. […] (Fig. S31 ^† and Table 6).
ΔEP is peak-to-peak separation = (EPa − EPc); E° (or E1/2) denotes the formal electrode potential = 1/2(EPa + EPc); [drawing 41] [drawing 42] and [drawing 43] represent the formal electrode potential of the M^1+/M^2+ couple in the bound and free forms, respectively. [drawing 44] = +19 mV (HL), +18 mV (1), +16 mV (2), +16 mV (3). Ipa is anodic peak current, Ipc is cathodic peak current. K^1+ is the binding constant of the reduction process, K^2+ is the binding constant of the oxidation process. S represents the binding site size of base pairs (bp) with a molecule of complex, scan rate is 100 mV s^−1, binding constant (Kb) values observed from the linear plots of log(1/[DNA]) versus log(I/I0 − I) for oxidation and reduction, (I0 − IDNA)/IDNA = Cp/Cfversus [DNA] and I^2p versus(I^2po − I^2p)/[DNA] by methods I, II and III, respectively.
While the substances often bind to DNA through intercalation, the peak potential shifts in a positive direction. When the compounds bind to DNA through minor or major grooves or electrostatic attractions, the peak potential shifts occur in a negative direction. It was observed that the consistent movement of peak potential shifts in the positive direction during increments of DNA with test substances. The binding mode in compound–DNA adducts has been described as primarily intercalation (Fig. S31 ^†), and it is also attributed to the presence of 2,2′-bipyridine and morpholine fused aromatic planar systems in mixed ligand complexes, which can create inclusion through intercalation due to hydrophobic and π–π stacking interactions in the DNA base pairs. It is also supported by the evaluated outcomes from UV-vis spectral, emission titration, viscometric, and biothermodynamic properties. Furthermore, the observed values of Kb, S, and the ratio of binding constants (K^1+/K^2+) for M^1+/M^2+ couple systems further confirmed the binding affinity via intercalation. Also, the subsequent eqn (24)–(35) are applied to determine the above parameters.[88,89]Eqn (24) is acquired from modification of the Stern–Volmer eqn (14) (Table 6). The Kb values for all samples were estimated from the linear regression plot of log(1/[DNA]) versus log(I/I0 − I) by method I (Fig. S32 ^† and Table 6). Eqn (26) was obtained from revision of eqn (25). Also, binding site size (S, bp) and Kb are estimated from eqn (30) from the linear regression plot of (Cp/Cf) versus [DNA] by method-II[90–92] (Fig. S33 ^† and Table 6). In addition, base-pair sites with a molecule of the compound are referred to as “binding site size” (S), and the evaluated S values were found in the range from 0.1718 to 0.4599 bp. […] In the Nernst eqn (31) and (32) for the galvanic cell, [drawing 58] , the formal electrode potentials of the M^1+/M^2+ couple in their bound and free forms are E1/2 or [drawing 59] and [drawing 60] , respectively. As a result of the variable binding state [M^1+/M^2+] and the delayed mass transfer of test compounds that interacted with DNA fragments, the addition of DNA to the compound solution enabled a change in the redox potential to a higher positive direction and a drop in both anodic and cathodic peak currents. In particular, the equilibrium of M^1+/M^2+ is influenced by electrostatic or hydrophobic interactions.

A short description of assay [2]: Nitric oxide scavenging assay. Type of assay: biochemical. To be noted: 546 nm.
Assay [3] relates to Shigella flexneri. The experiment in a line: Agar disc diffusion, strain E. Type of assay: cell-based. Also on record: Inhibition%: concentration or dose not given beside the values. To be noted: for Diameter of clear zone inhibition: control 6 mm. For orientation: Agar diffusion results depend on both activity and mobility in agar.
Assay [4] has as its system MCF-7. Description: MTT cell viability assay, MCF-7. The following applies: MCF-7, 72 h of exposure. Type of assay: cell-based, human. (In general: Formazan colour is commonly taken as a measure of viable cells.)
For assay [5], the system named is NHDF. Description: MTT cell viability assay, NHDF. The following applies: NHDF normal cells, 72 h of exposure. Type of assay: cell-based, human. Here is the method:
Cellular viability or metabolic properties can be measured using the MTT assay, which is a powerful and consistent method for cytotoxic properties. […] As per the colorimetric approach, the IC50 values of all compounds were evaluated via the percentage of cell viability or inhibition of growth.[128] […] However, complexes (2) and (3) were exposed to similar cytotoxic potential as the others,[129] which induces apoptosis due to their ability to produce ROS more efficiently than the free ligand. […] The cytotoxic effectiveness is dependent upon the DNA binding modalities, the structure–activity relationship, the drug concentrations, and the incubation period exposure.[130] […] Coordination between the ligands and metal ions results in charge equilibration, which diminishes the polarity of the metal ions and also causes the ability of the test complexes to pass via the cell membrane lipid layer in accordance with Tweedy's chelation theory. Thus, it inhibits the synthesis of cell-wall/protein/nucleic acid. Additionally, the results of DNA binding tests using these complexes, including gel electrophoresis, UV-vis spectral titration, hydrodynamics, emission, and CV findings, were in good agreement with the findings of cytotoxicity.[131] Expressions eqn (44) and (45) were applied to measure the percentage of growth inhibition and cell viability (Table 10). In this case, complexes (2) and (3) have been proven to have greater biological efficiency than the others. Cytotoxicity depends on not only the hydrophilicity or lipophilicity and permeability, which only assist the crossing of the cell membrane but are not responsible for cell death, but also on several other factors, including the Lewis acid character, overall stability, solubility, conductivity, compatibility, length of the metal–ligand bond, overall charge, electron density, reduction potential, dipole moment, intermolecular hydrogen bonds, proton transfer equilibrium, and coordination environment. These significant elements might also contribute to the increased biological activity. Moreover, cobalt is also generally not considered to be a very toxic element, and its coordination complexes have fascinating redox and magnetic characteristics that fit them for a remarkable range of biological and medical uses. […] Moreover, it is possible to intelligently adjust these factors to successfully target a desired pathway or biomolecule. Designing such well-controlled and selective cobalt-based therapeutics may benefit from a mechanistic understanding of the varied bioactivities of cobalt complexes. Thus, knowing the mechanism of action can direct the advancement of prospective cobalt treatments to clinical trial.[133]
2.5. Assessment of in-vitro antimicrobial properties
bacteria and 7 days for fungal strains.

Usually IC50 stands for the concentration at which inhibition is half-maximal.

In the case of `[Mn+2].[O-]c1ccccc1N=Cc1ccc(N2CCOCC2)cc1.[O-]c1ccccc1N=Cc1ccc(N2CCOCC2)cc1.c1ccc(-c2ccccn2)nc1` [(1)], the “Kb, method II” value in assay [1] stood at 14873 M⁻¹. The “Kb, method III” value in assay [1] worked out at 10713 M⁻¹. Further, the “Kb, method I, Oxi” value in assay [1] amounted to 10020 M⁻¹. In addition, the “Kb, method I, red” value in assay [1] was 7890 M⁻¹. For the same compound, the “% Inhibition, nitric oxide” value came to 13.14% in assay [2] (40 µM); 22.48% in assay [2] (80 µM); 28.54% in assay [2] (120 µM); 36.64% in assay [2] (160 µM); 44.75% in assay [2] (200 µM); 56.69% in assay [2] (240 µM). The Inhibition% in assay [3] worked out at 40%. In addition, the “Diameter of clear zone inhibition” value in assay [3] is recorded as 10 mm. In addition, the IC50 was found to be 36.6 ± 1.8 µM in assay [4] and 76.6 ± 3.8 µM in assay [5].
`[Co+2].[O-]c1ccccc1N=Cc1ccc(N2CCOCC2)cc1.[O-]c1ccccc1N=Cc1ccc(N2CCOCC2)cc1.c1ccc(-c2ccccn2)nc1` [(2)]: the “Kb, method II” value in assay [1] was 41119 M⁻¹. The “Kb, method III” value in assay [1] worked out at 15999 M⁻¹. In addition, the “Kb, method I, Oxi” value in assay [1] is 14210 M⁻¹. Besides, the “Kb, method I, red” value in assay [1] came to 11330 M⁻¹. The “% Inhibition, nitric oxide” value in assay [2] (40 µM) is 14.72%; in assay [2] (80 µM) it was 23.62%; in assay [2] (120 µM), 31.21%; in assay [2] (160 µM), 39.12%; in assay [2] (200 µM), 46.06%; in assay [2] (240 µM), 61.34%. Further, the Inhibition% in assay [3] is given as 33%. In assay [3], the “Diameter of clear zone inhibition” value is recorded as 09 mm. Also, the IC50 stood at 35.9 ± 1.8 µM in assay [4] and 74 ± 3.7 µM in assay [5].
As to `[Ni+2].[O-]c1ccccc1N=Cc1ccc(N2CCOCC2)cc1.[O-]c1ccccc1N=Cc1ccc(N2CCOCC2)cc1.c1ccc(-c2ccccn2)nc1` [(3)], in assay [1], the “Kb, method II” value was 6072 M⁻¹. Further, the “Kb, method III” value in assay [1] is 16031 M⁻¹. For the same compound, in assay [1], the “Kb, method I, Oxi” value was 11440 M⁻¹. Besides, the “Kb, method I, red” value in assay [1] was found to be 9156 M⁻¹. Moreover, the “% Inhibition, nitric oxide” value in assay [2] (40 µM) worked out at 14.72%; in assay [2] (80 µM) it was 23.28%; in assay [2] (120 µM), 29.66%; in assay [2] (160 µM), 38.63%; in assay [2] (200 µM), 45.60%; in assay [2] (240 µM), 59.65%. The compound also displayed an Inhibition% in assay [3] of 54%. The “Diameter of clear zone inhibition” value in assay [3] amounted to 13 mm. For the same compound, the IC50 came to 34.5 ± 1.7 µM in assay [4] and 73.8 ± 3.7 µM in assay [5].
In the case of `Oc1ccccc1N=Cc1ccc(N2CCOCC2)cc1` [(HL), 2-(4-morpholinobenzylideneamino)phenol], the “Kb, method II” value in assay [1] was 2443 M⁻¹. The “Kb, method III” value in assay [1] is 4837 M⁻¹. Besides, the “Kb, method I, Oxi” value in assay [1] amounted to 5280 M⁻¹. Besides, the “Kb, method I, red” value in assay [1] worked out at 3809 M⁻¹. The “% Inhibition, nitric oxide” value in assay [2] (40 µM) worked out at 11.42%; in assay [2] (80 µM), 18.26%; in assay [2] (120 µM), 24.28%; in assay [2] (160 µM), 33.21%; in assay [2] (200 µM), 40.53%; in assay [2] (240 µM), 51.62%. For the same compound, the Inhibition% in assay [3] was 57%. Further, the “Diameter of clear zone inhibition” value in assay [3] was found to be 14 mm. The IC50 in assay [4] (Homo sapiens, MCF7) was 105 ± 5.3 µM; in assay [5] (Homo sapiens), 209 ± 10.4 µM.
